Columns and labels:
uninfected CEM-T4 cells = assay: Toxicity to uninfected CEM-T4 cells (MTT assay); assay type: cell-based; settings: day 8, MTT
Protocol: The assays desirably measure the concentration of the multi-quinone that allows for 50% survival of CEM-T4 cells infected with HIV-1 and the concentration of multi-quinone that kills 50% of uninfected CEM-T4 cells. One skilled in the art will appreciate that other known assays or tests for determining antiviral activity may be used.
The chlorohydroxybiquinone was tested for anti-HIV activity by the CEM-T4 cytoprotection assay which measures the inhibition of viral cytopathogenic effects. CEM-T4 cells used for the assay were maintained in RPMI-1640 culture medium containing 2 millimoles L-glutamine and 25 millimoles HEPES, and supplemented with 10% fetal bovine serum, 50 units/milliliter of penicillin G, and 50 microgram/milliliter streptomycin sulfate. The antiviral assays were performed in 96-well tissue culture plates. Cells were treated with polybrene at a concentration of 2 microgram/milliliter, and 1×10^4 cells were dispensed into each well. Appropriate concentrations of the biquinone were prepared in sterile DMSO and diluted with culture medium to the desired concentrations. Each dilution of test compound was added to multiple wells of cells, and the cells were incubated at 37° C. for one hour. Cells were then infected at a multiplicity of infection of 0.025 TCID50/cell by the addition of a diluted stock of the HTLV-IIIB strain of HIV-1. […]
Assay plates were incubated at 37° C. in a humidified 5% carbon dioxide (CO2) atmosphere and examined microscopically for toxicity and/or cytopathogenic effect. Once the viral cytopathogenic effect was maximal (the eighth day post-infection), the surviving cells in each test well were quantified using the MTT assay known in the art and described in Pauwels et al., “Rapid and Automated Tetrazolium-based Colorimetric Assay for the Detection of Anti-HIV Compounds,” J. Virol. […] When a dose-dependent effect for either anti-HIV activity or cytotoxicity was observed, values for the 50% effective dose were calculated using the dose-effect analysis software of Chou and Chou, available from Elsevier-Biosoft.

[1] = system: retroviruses such as an HIV; settings: as disclosed in the Boyd et al. Patents; cited from earlier work

Row | Compound | TD50 (concentration to cause reduction of cell growth by 50% of uninfected controls) (uninfected CEM-T4 cells) | antiviral activity (growth and replication of viruses) [1]
1 | CC(C)=CCC[C@]1(C)C=Cc2c(ccc3c2C(=O)C(O)=C(C2=C(Cl)C(=O)c4ccccc4C2=O)C3=O)O1 [chlorohydroxybiquinone, 8-(3-Chloro-1,4-dioxo-1,4-dihydronapthalen-2-yl)-9-hydroxy-3-methyl-3-(4-methyl-pent-3-enyl)-3H-benzo[f]chromene-7,10-dione] | 2.7 µM | 
2 | COC1=C(C2=C(C3=C(O)C(=O)c4ccccc4C3=O)C(=O)c3ccccc3C2=O)C(=O)c2ccc3c(c2C1=O)C=CC(C)(C)O3 [trimeric quinone, 3-Hydroxy-3′-(9-methoxy-3,3-dimethyl-7,10-dioxo-7,10-dihydro-3H-benzo[f]chromen-8-yl)-2,2′-binaphthalenyl-1,4,1′,4′-tetraone] | 17 µM | 
3 | COC1=C(C2=C(Cl)C(=O)c3ccccc3C2=O)C(=O)c2ccc3c(c2C1=O)C=C[C@@](C)(CCC=C(C)C)O3 [chloromethoxybiquinone, 8-(3-Chloro-1,4-dioxo-1,4-dihydro-napthalen-2-yl)-9-methoxy-3-methyl-3-(4-methyl-pent-3-enyl)-3H-benzo[f]chromene-7,10-dione] | 5.4 µM | 
4 | CC(C)=CCC[C@]1(C)C=Cc2c(ccc3c2C(=O)C(O)=C(C2=C(C4=C(O)C(=O)c5c(ccc6c5C=C[C@@](C)(CCC=C(C)C)O6)C4=O)C(=O)c4c(ccc5c4C=C[C@@](C)(CCC=C(C)C)O5)C2=O)C3=O)O1 [conocurvone] |  | inhibit the growth and replication of viruses

— patent publication US6828347B2, “Anti-viral multi-quinone compounds and regiospecific synthesis thereof” (Illinois Institute of Technology, priority 2002, dated 2004)
